Data taken from ChEMBL document CHEMBL5356985, “Development of trisubstituted thiophene-3-arboxamide selenide derivatives as novel EGFR kinase inhibitors with cytotoxic activity” (RSC Med Chem, 2023).
Active and inactive are the calls of the source. The calls are words filed in the database; no cut-off is given here.

Legend:
SK-MEL-28 [1] = experiment: Antiproliferative activity against human SK-MEL-28 cells assessed as cell growth inhibition at 20 uM incubated for 48 hrs by MTT assay; format: functional
HCT-116 [2] = experiment: Induction of apoptosis in human HCT-116 cells assessed as increase in necrotic cells by measuring ratio of orange-red fluorescence at 1.6 to 6.4 uM incubated for 48 hrs by Acridine orange/ethidium bromide staining based fluorescence microscopy; format: functional, cell-based; conditions: dose 1.6-6.4 µM
HCT-116 [3] = experiment: Anti-metastatic activity against human HCT-116 cells assessed as inhibition of cell migration by measuring wound width at 6.4 uM and measured at 48 hrs by scratch wound healing assay (Rvb=179.681 micrometer); format: functional
HCT-116 [4] = experiment: Induction of intracellular ROS generation in human HCT-116 cells at 1.6 to 3.2 uM incubated for 48 hrs by DCFDA staining based fluorescence analysis; format: functional, cell-based; conditions: dose 1.6-3.2 µM
HCT-116 [5] = experiment: Induction of apoptosis in human HCT-116 cells assessed as pyknotic/fragmented bright nucleus at 1.6 to 6.4 uM incubated for 48 hrs by DAPI staining based fluorescence microscopy; format: functional, cell-based; conditions: dose 1.6-6.4 µM
HCT-116 [6] = experiment: Anti-metastatic activity against human HCT-116 cells assessed as inhibition of cell migration by measuring wound width at 6.4 uM and measured at 0 hrs by scratch wound healing assay (Rvb=287.904 micrometer); format: functional
SK-MEL-28 [7] = experiment: Antiproliferative activity against human SK-MEL-28 cells assessed as cell growth inhibition incubated for 48 hrs by MTT assay; format: functional, cell-based; conditions: SK-MEL-28, 48 h
HCT-116 [8] = experiment: Antiproliferative activity against human HCT-116 cells assessed as cell growth inhibition at 20 uM incubated for 48 hrs by MTT assay; format: functional
HCT-116 [9] = experiment: Induction of apoptosis in human HCT-116 cells assessed as live cells at 1.6 uM incubated for 48 hrs by annexin V-FITC and propidium iodide staining based flow cytometry (Rvb=68.64%); format: functional
HCT-116 [10] = experiment: Induction of apoptosis in human HCT-116 cells assessed as necrotic cells at 3.2 uM incubated for 48 hrs by annexin V-FITC and propidium iodide staining based flow cytometry (Rvb=13.42%); format: functional
HCT-116 [11] = experiment: Induction of apoptosis in human HCT-116 cells assessed as late apoptotic cells at 1.6 uM incubated for 48 hrs by annexin V-FITC and propidium iodide staining based flow cytometry (Rvb=13.51%); format: functional
HCT-116 [12] = experiment: Antiproliferative activity against human HCT-116 cells assessed as cell growth inhibition incubated for 48 hrs by MTT assay; format: functional, cell-based; conditions: HCT-116, 48 h
HCT-116 [13] = experiment: Induction of apoptosis in human HCT-116 cells assessed as early apoptotic cells at 3.2 uM incubated for 48 hrs by annexin V-FITC and propidium iodide staining based flow cytometry (Rvb=4.44%); format: functional
[14] = Cytotoxicity against human HaCaT cells assessed as cell growth inhibition incubated for 48 hrs by MTT assay; format: toxicity, cell-based
HCT-116 [15] = experiment: Induction of apoptosis in human HCT-116 cells assessed as chromatin condensation at 1.6 to 6.4 uM incubated for 48 hrs by DAPI staining based fluorescence microscopy; format: functional, cell-based; conditions: dose 1.6-6.4 µM
HCT-116 [16] = experiment: Anti-metastatic activity against human HCT-116 cells assessed as inhibition of cell migration at 1.6 to 6.4 uM and measured at 48 hrs by scratch wound healing assay; format: functional, cell-based; conditions: dose 1.6-6.4 µM
HCT-116 [17] = experiment: Induction of apoptosis in human HCT-116 cells assessed as live cells at 6.4 uM incubated for 48 hrs by annexin V-FITC and propidium iodide staining based flow cytometry (Rvb=68.64%); format: functional
HCT-116 [18] = experiment: Induction of apoptosis in human HCT-116 cells assessed as increase in late apoptotic cells by measuring ratio of orange-red fluorescence at 1.6 to 6.4 uM incubated for 48 hrs by Acridine orange/ethidium bromide staining based fluorescence microscopy; format: functional, cell-based; conditions: dose 1.6-6.4 µM
[19] = target: Epidermal growth factor receptor (Homo sapiens, UniProt P00533); experiment: Inhibition of EGFR (unknown origin) using poly E4Y1 and ATP as substrate incubated for 60 mins by ADP-Glo kinase assay
HCT-116 [20] = experiment: Induction of apoptosis in human HCT-116 cells assessed as cell shrinkage at 1.6 to 6.4 uM incubated for 48 hrs by phase-contrast microscopy; format: functional, cell-based; conditions: dose 1.6-6.4 µM
HCT-116 [21] = experiment: Anti-metastatic activity against human HCT-116 cells assessed as inhibition of cell migration by measuring wound width at 1.6 uM and measured at 0 hrs by scratch wound healing assay (Rvb=287.904 micrometer); format: functional
HCT-116 [22] = experiment: Anti-metastatic activity against human HCT-116 cells assessed as inhibition of cell migration by measuring wound width at 3.2 uM and measured at 0 hrs by scratch wound healing assay (Rvb=287.904 micrometer); format: functional
HCT-116 [23] = experiment: Induction of intracellular ROS generation in human HCT-116 cells at 6.4 uM incubated for 48 hrs by DCFDA staining based fluorescence analysis; format: functional, cell-based
MCF7 [24] = experiment: Antiproliferative activity against human MCF7 cells assessed as cell growth inhibition incubated for 48 hrs by MTT assay; format: functional, cell-based; conditions: MCF7, 48 h
HCT-116 [25] = experiment: Anti-metastatic activity against human HCT-116 cells assessed as inhibition of cell migration by measuring wound width at 1.6 uM and measured at 48 hrs by scratch wound healing assay (Rvb=179.681 micrometer); format: functional
HCT-116 [26] = experiment: Induction of apoptosis in human HCT-116 cells assessed as late apoptotic cells at 6.4 uM incubated for 48 hrs by annexin V-FITC and propidium iodide staining based flow cytometry (Rvb=13.51%); format: functional
HCT-116 [27] = experiment: Induction of apoptosis in human HCT-116 cells assessed as cell shape alteration at 1.6 to 6.4 uM incubated for 48 hrs by phase-contrast microscopy; format: functional, cell-based; conditions: dose 1.6-6.4 µM
HCT-116 [28] = experiment: Anti-metastatic activity against human HCT-116 cells assessed as inhibition of cell migration by measuring wound width at 3.2 uM and measured at 48 hrs by scratch wound healing assay (Rvb=179.681 micrometer); format: functional
HCT-116 [29] = experiment: Induction of mitochondrial transmembrane potential loss in human HCT-116 cells assessed as reduction in red/green fluorescence ratio at 6.4 uM incubated for 48 hrs by JC-1 staining based fluorescence microscopic analysis; format: functional, cell-based
HCT-116 [30] = experiment: Induction of apoptosis in human HCT-116 cells assessed as necrotic cells at 1.6 uM incubated for 48 hrs by annexin V-FITC and propidium iodide staining based flow cytometry (Rvb=13.42%); format: functional
HCT-116 [31] = experiment: Induction of apoptosis in human HCT-116 cells assessed as necrotic cells at 6.4 uM incubated for 48 hrs by annexin V-FITC and propidium iodide staining based flow cytometry (Rvb=13.42%); format: functional
HCT-116 [32] = experiment: Induction of apoptosis in human HCT-116 cells assessed as live cells at 3.2 uM incubated for 48 hrs by annexin V-FITC and propidium iodide staining based flow cytometry (Rvb=68.64%); format: functional
A549 [33] = experiment: Antiproliferative activity against human A549 cells assessed as cell growth inhibition at 20 uM incubated for 48 hrs by MTT assay; format: functional
HCT-116 [34] = experiment: Induction of apoptosis in human HCT-116 cells assessed as horse shoe-shaped nuclear morphological change at 1.6 to 6.4 uM incubated for 48 hrs by DAPI staining based fluorescence microscopy; format: functional, cell-based; conditions: dose 1.6-6.4 µM
HCT-116 [35] = experiment: Induction of apoptosis in human HCT-116 cells assessed as reduction in number of viable cells at 1.6 to 6.4 uM incubated for 48 hrs by phase-contrast microscopy; format: functional, cell-based; conditions: dose 1.6-6.4 µM
MCF7 [36] = experiment: Antiproliferative activity against human MCF7 cells assessed as cell growth inhibition at 20 uM incubated for 48 hrs by MTT assay; format: functional
HCT-116 [37] = experiment: Induction of apoptosis in human HCT-116 cells assessed as early apoptotic cells at 6.4 uM incubated for 48 hrs by annexin V-FITC and propidium iodide staining based flow cytometry (Rvb=4.44%); format: functional
A549 [38] = experiment: Antiproliferative activity against human A549 cells assessed as cell growth inhibition incubated for 48 hrs by MTT assay; format: functional, cell-based; conditions: A549, 48 h
HCT-116 [39] = experiment: Induction of apoptosis in human HCT-116 cells assessed as early apoptotic cells at 1.6 uM incubated for 48 hrs by annexin V-FITC and propidium iodide staining based flow cytometry (Rvb=4.44%); format: functional
HCT-116 [40] = experiment: Induction of mitochondrial transmembrane potential loss in human HCT-116 cells assessed as reduction in red/green fluorescence ratio at 1.6 to 3.2 uM incubated for 48 hrs by JC-1 staining based fluorescence microscopic analysis; format: functional, cell-based; conditions: dose 1.6-3.2 µM
HCT-116 [41] = experiment: Induction of apoptosis in human HCT-116 cells assessed as late apoptotic cells at 3.2 uM incubated for 48 hrs by annexin V-FITC and propidium iodide staining based flow cytometry (Rvb=13.51%); format: functional

Epidermal growth factor receptor, sequence (P00533 whole entry): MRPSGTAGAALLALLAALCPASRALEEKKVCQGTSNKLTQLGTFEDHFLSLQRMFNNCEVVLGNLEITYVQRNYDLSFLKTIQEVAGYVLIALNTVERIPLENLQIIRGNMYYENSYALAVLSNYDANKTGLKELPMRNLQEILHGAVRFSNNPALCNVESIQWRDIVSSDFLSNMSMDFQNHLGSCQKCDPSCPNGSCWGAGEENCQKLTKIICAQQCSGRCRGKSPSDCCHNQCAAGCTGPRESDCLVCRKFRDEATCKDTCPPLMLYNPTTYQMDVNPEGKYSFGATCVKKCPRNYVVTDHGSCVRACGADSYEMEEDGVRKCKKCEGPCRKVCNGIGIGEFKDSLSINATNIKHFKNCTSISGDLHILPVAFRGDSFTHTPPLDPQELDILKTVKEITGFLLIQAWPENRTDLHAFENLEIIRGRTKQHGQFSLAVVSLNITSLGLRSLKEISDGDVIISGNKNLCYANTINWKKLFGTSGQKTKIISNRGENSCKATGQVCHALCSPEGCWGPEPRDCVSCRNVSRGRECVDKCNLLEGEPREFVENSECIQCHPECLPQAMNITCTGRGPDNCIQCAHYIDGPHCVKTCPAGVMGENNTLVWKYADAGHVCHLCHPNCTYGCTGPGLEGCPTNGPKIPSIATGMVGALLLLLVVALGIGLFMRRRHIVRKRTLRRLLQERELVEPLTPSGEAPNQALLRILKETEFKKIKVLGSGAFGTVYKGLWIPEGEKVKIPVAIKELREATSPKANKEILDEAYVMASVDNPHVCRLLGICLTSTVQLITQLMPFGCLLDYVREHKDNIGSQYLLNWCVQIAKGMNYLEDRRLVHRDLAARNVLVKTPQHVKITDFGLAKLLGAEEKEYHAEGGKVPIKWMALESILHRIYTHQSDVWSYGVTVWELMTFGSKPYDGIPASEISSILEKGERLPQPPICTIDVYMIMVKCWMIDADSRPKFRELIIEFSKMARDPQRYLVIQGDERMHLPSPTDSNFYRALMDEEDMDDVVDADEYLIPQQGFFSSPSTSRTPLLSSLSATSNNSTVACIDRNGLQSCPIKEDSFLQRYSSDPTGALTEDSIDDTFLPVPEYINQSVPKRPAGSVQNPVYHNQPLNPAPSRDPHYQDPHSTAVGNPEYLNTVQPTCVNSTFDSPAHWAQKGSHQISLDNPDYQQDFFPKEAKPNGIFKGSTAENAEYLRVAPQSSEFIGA

- IC50 (SK-MEL-28 [7]): 8.81 µM
- IC50 (HCT-116 [12]): 3.2 µM
- IC50 [19]: 0.0944 µM
- IC50 (MCF7 [24]): 8.06 µM
- IC50 (A549 [38]): 7.86 µM
SMILES: Cc1sc([Se]c2sc(C)c(-c3cccc(Br)c3)c2C(=O)NC(CO)C(=O)N2CCCC2)c(C(=O)NC(CO)C(=O)N2CCCC2)c1-c1cccc(Br)c1 (stereo unspecified)
- inhibition at 20 µM (SK-MEL-28 [1]): 78%
- Activity (HCT-116 [2]): Dose-Dependent Effect
- Activity (HCT-116 [3]): 267.94 um
- Activity (HCT-116 [4]): Dose-Dependent Effect
- Activity (HCT-116 [5]): Active
- Activity (HCT-116 [6]): 275.298 um
- inhibition at 20 µM (HCT-116 [8]): 75%
- Activity (HCT-116 [9]): 52.95%
- Activity (HCT-116 [10]): 12.61%
- Activity (HCT-116 [11]): 27.98%
- Activity (HCT-116 [13]): 11.75%
- IC50 at 48 h [14]: 24 µM
- Activity (HCT-116 [15]): Active
- Activity (HCT-116 [16]): Dose-Dependent Effect
- Activity (HCT-116 [17]): 2.56%
- Activity (HCT-116 [18]): Dose-Dependent Effect
- Activity (HCT-116 [20]): Dose-Dependent Effect
- Activity (HCT-116 [21]): 257.433 um
- Activity (HCT-116 [22]): 296.312 um
- Activity (HCT-116 [23]): Active
- Activity (HCT-116 [25]): 235.37 um
- Activity (HCT-116 [26]): 88.93%
- Activity (HCT-116 [27]): Dose-Dependent Effect
- Activity (HCT-116 [28]): 276.354 um
- Activity (HCT-116 [29]): Active
- Activity (HCT-116 [30]): 10.1%
- Activity (HCT-116 [31]): 5.47%
- Activity (HCT-116 [32]): 32.12%
- inhibition at 20 µM (A549 [33]): 90%
- Activity (HCT-116 [34]): Active
- Activity (HCT-116 [35]): Dose-Dependent Effect
- inhibition at 20 µM (MCF7 [36]): 90%
- Activity (HCT-116 [37]): 3.04%
- Activity (HCT-116 [39]): 8.97%
- Activity (HCT-116 [40]): Dose-Dependent Effect
- Activity (HCT-116 [41]): 43.71%
